Measured values as given in US7709471B2, “Compounds” (AstraZeneca AB, priority 2006, dated 2010).

System: human colon tumour cell line HT29
Test: Cellular Assay (phosphohistone H3 Ser10 mitotic marker, HT29)
Type: cell-based
Conditions: HT-29, 24 h, HT29 cells, read-out: IC50 (cellular assay, phosphohistone H3)
Experimental: Chromosome condensation in mitosis is accompanied by phosphorylation of histone H3 on serine 10.
After 24 hours, cells were fixed in 3.7% (v/v) formaldehyde then permeabilised and blocked for 10 minutes in 100 μl 0.5% (v/v) Triton X-100, 1% (w/v) bovine serum albumin (BSA) in phosphate buffered saline (PBS). […] The raw assay data were analysed by non-linear regression analysis and used to determine an IC50 value for each compound.

Row | SMILES | IC50
1 | COc1cc(C(=O)NC2CCN(C)C3CCCCC23)ccc1Nc1ncc2c(n1)N(C1CCCC1)CCC(=O)N2C (single isomer, unassigned) [Example 342, 4-[(2-cyclopentyl-6-methyl-5-oxo-2,6,9,11-tetrazabicyclo[5.4.0]undeca-7,9,11-trien-10-yl)amino]-3-methoxy-N-(1-methyl-3,4,4a,5,6,7,8,8a-octahydro-2H-quinolin-4-yl)benzamide] | < 0.3 µM
2 | CN1C(=O)CCN(C2CCCC2)c2nc(Nc3cccc(C(N)=O)c3)ncc21 [Example 167, 3-[(6-cyclopentyl-2-methyl-3-oxo-2,6,8,10-tetrazabicyclo[5.4.0]undeca-8,10,12-trien-9-yl)amino]benzamide] | < 30 µM
3 | CN1C(=O)CCN(C2CCCC2)c2nc(Nc3cccc(-c4ccccc4)c3)ncc21 [Example 171, 6-cyclopentyl-2-methyl-9-[(3-phenylphenyl)amino]-2,6,8,10-tetrazabicyclo[5.4.0]undeca-8,10,12-trien-3-one] | < 30 µM
4 | COc1cc(C(=O)O)ccc1Nc1ncc2c(n1)N(C1CCCC1)CC(C)(C)C(=O)N2C [Example 242, 4-[(2-cyclopentyl-4,4,6-trimethyl-5-oxo-2,6,9,11-tetrazabicyclo[5.4.0]undeca-7,9,11-trien-10-yl)amino]-3-methoxy-benzoic acid] | < 1 µM
5 | C#CCN1CCC(=O)N(C)c2cnc(Nc3ccc(C(=O)NC4CCN(C)CC4)cc3OC)nc21 [Example 271, 3-methoxy-4-[(6-methyl-5-oxo-2-prop-2-ynyl-2,6,9,11-tetrazabicyclo[5.4.0]undeca-7,9,11-trien-10-yl)amino]-N-(1-methyl-4-piperidyl)benzamide] | < 30 µM
6 | COc1cc(C(=O)NC2C[C@H]3CCC[C@@H](C2)N3C)ccc1Nc1ncc2c(n1)N(C1CCCC1)CC(C)(C)C(=O)N2 (stereo partly drawn) [Example 278, 4-[(2-cyclopentyl-4,4-dimethyl-5-oxo-2,6,9,11-tetrazabicyclo[5.4.0]undeca-7,9,11-trien-10-yl)amino]-3-methoxy-N-[(1S,5R)-9-methyl-9-azabicyclo[3.3.1]non-7-yl]benzamide] | < 1 µM
7 | CCOc1cc(C(=O)N[C@@H]2CCN(C)C2)ccc1Nc1ncc2c(n1)N(C(C)C)CCC(=O)N2C [Example 284, 3-ethoxy-4-[(6-methyl-5-oxo-2-propan-2-yl-2,6,9,11-tetrazabicyclo[5.4.0]undeca-7,9,11-trien-10-yl)amino]-N-[(3R)-1-methylpyrrolidin-3-yl]benzamide] | < 30 µM
8 | CCOc1cc(C(=O)NC2CCC(N(C)C)CC2)ccc1Nc1ncc2c(n1)N(C(C)C)CCC(=O)N2C (centres unmarked) [Example 286, N-(4-dimethylaminocyclohexyl)-3-ethoxy-4-[(6-methyl-5-oxo-2-propan-2-yl-2,6,9,11-tetrazabicyclo[5.4.0]undeca-7,9,11-trien-10-yl)amino]benzamide] | < 30 µM
9 | CCOc1cc(C(=O)NC2CCN(C)CC2)c(F)cc1Nc1ncc2c(n1)N(C(C)C)CCC(=O)N2C [Example 287, 5-ethoxy-2-fluoro-4-[(6-methyl-5-oxo-2-propan-2-yl-2,6,9,11-tetrazabicyclo[5.4.0]undeca-7,9,11-trien-10-yl)amino]-N-(1-methyl-4-piperidyl)benzamide] | < 30 µM
10 | CC(C)N1CC(C)(C)C(=O)N(C)c2cnc(Nc3cc(F)c(C(=O)NC4CCN(C)CC4)cc3Cl)nc21 [Example 289, 5-chloro-2-fluoro-N-(1-methyl-4-piperidyl)-4-[(4,4,6-trimethyl-5-oxo-2-propan-2-yl-2,6,9,11-tetrazabicyclo[5.4.0]undeca-7,9,11-trien-10-yl)amino]benzamide] | < 1 µM
11 | CCN1CCC(NC(=O)c2cc(Cl)c(Nc3ncc4c(n3)N(C(C)C)CC(C)(C)C(=O)N4C)cc2F)CC1 [Example 290, 5-chloro-N-(1-ethyl-4-piperidyl)-2-fluoro-4-[(4,4,6-trimethyl-5-oxo-2-propan-2-yl-2,6,9,11-tetrazabicyclo[5.4.0]undeca-7,9,11-trien-10-yl)amino]benzamide] | < 1 µM
12 | CC(C)N1CC(C)(C)C(=O)N(C)c2cnc(Nc3cc(F)c(C(=O)NC4CCC(N(C)C)CC4)cc3Cl)nc21 (centres unmarked) [Example 291, 5-chloro-N-(4-dimethylaminocyclohexyl)-2-fluoro-4-[(4,4,6-trimethyl-5-oxo-2-propan-2-yl-2,6,9,11-tetrazabicyclo[5.4.0]undeca-7,9,11-trien-10-yl)amino]benzamide] | < 0.3 µM
13 | COc1cc(C(=O)N[C@@H]2CCN(C)C2)c(F)cc1Nc1ncc2c(n1)N(C(C)C)CC(C)(C)C(=O)N2C [Example 292, 2-fluoro-5-methoxy-N-[(3R)-1-methylpyrrolidin-3-yl]-4-[(4,4,6-trimethyl-5-oxo-2-propan-2-yl-2,6,9,11-tetrazabicyclo[5.4.0]undeca-7,9,11-trien-10-yl)amino]benzamide] | < 0.3 µM
14 | CCOc1cc(C(=O)N[C@@H]2CCN(C)C2)ccc1Nc1ncc2c(n1)N(C(C)C)CC(C)(C)C(=O)N2C [Example 293, 3-ethoxy-N-[(3R)-1-methylpyrrolidin-3-yl]-4-[(4,4,6-trimethyl-5-oxo-2-propan-2-yl-2,6,9,11-tetrazabicyclo[5.4.0]undeca-7,9,11-trien-10-yl)amino]benzamide] | < 1 µM
15 | CCOc1cc(C(=O)NC2CCC(N(C)C)CC2)ccc1Nc1ncc2c(n1)N(C(C)C)CC(C)(C)C(=O)N2C (centres unmarked) [Example 294, N-(4-dimethylaminocyclohexyl)-3-ethoxy-4-[(4,4,6-trimethyl-5-oxo-2-propan-2-yl-2,6,9,11-tetrazabicyclo[5.4.0]undeca-7,9,11-trien-10-yl)amino]benzamide] | < 1 µM
16 | CCOc1cc(C(=O)NC2CCN(C)CC2)c(F)cc1Nc1ncc2c(n1)N(C(C)C)CC(C)(C)C(=O)N2C [Example 296, 5-ethoxy-2-fluoro-N-(1-methyl-4-piperidyl)-4-[(4,4,6-trimethyl-5-oxo-2-propan-2-yl-2,6,9,11-tetrazabicyclo[5.4.0]undeca-7,9,11-trien-10-yl)amino]benzamide] | < 30 µM
17 | CCOc1cc(C(=O)N[C@@H]2CCN(C)C2)c(F)cc1Nc1ncc2c(n1)N(C(C)C)CC(C)(C)C(=O)N2C [Example 297, 5-ethoxy-2-fluoro-N-[(3R)-1-methylpyrrolidin-3-yl]-4-[(4,4,6-trimethyl-5-oxo-2-propan-2-yl-2,6,9,11-tetrazabicyclo[5.4.0]undeca-7,9,11-trien-10-yl)amino]benzamide] | < 30 µM
18 | COc1cc(C(=O)N[C@@H]2CCN(C)C2)ccc1Nc1ncc2c(n1)N(C(C)C)CC(C)(C)C(=O)N2C [Example 299, 3-methoxy-N-[(3R)-1-methylpyrrolidin-3-yl]-4-[(4,4,6-trimethyl-5-oxo-2-propan-2-yl-2,6,9,11-tetrazabicyclo[5.4.0]undeca-7,9,11-trien-10-yl)amino]benzamide] | < 0.3 µM
19 | CCN1CCC(NC(=O)c2ccc(Nc3ncc4c(n3)N(C(C)C)CC(C)(C)C(=O)N4C)c(OC)c2)CC1 [Example 300, N-(1-ethyl-4-piperidyl)-3-methoxy-4-[(4,4,6-trimethyl-5-oxo-2-propan-2-yl-2,6,9,11-tetrazabicyclo[5.4.0]undeca-7,9,11-trien-10-yl)amino]benzamide] | < 0.3 µM

Same assay, conditions: HT-29, HT29 cells, 24 h, read-out: IC50 (cellular assay, phosphohistone H3)

Row | SMILES | IC50
20 | CN1CCC(NC(=O)c2ccc(Nc3ncc4c(n3)N(C3CCCC3)CCC(=O)N4C)cc2)CC1 [Example 2, 4-[(2-cyclopentyl-6-methyl-5-oxo-2,6,9,11-tetrazabicyclo[5.4.0]undeca-8,10,12-trien-10-yl)amino]-N-(1-methyl-4-piperidyl)benzamide] | < 0.3 µM
